Data on eleven molecules can be found in patent US20010000177A1, “Novel class of thiomorpholino substituted thiazoles” (priority 1999, published 2001).

Assay type in all cases: cell-based
The subject of assay [1] is Candida and Cryptococcus strains (organism not given). The assay can be described thus: Broth microdilution antifungal activity, Table II first MIC/MCC column pair. The conditions noted are these: for MIC = Minimum inhibitory concentration (50% Inhibition) / MCC = Minimum cytolytic concentration: first column pair of Table II; for MIC = Minimum inhibitory concentration (50% Inhibition): YNB broth pH 7.0; for MCC = Minimum cytolytic concentration: subculture on SDA plate. The protocol: (§1) Organisms: Three strains of Candida (Candida parpsilosis, Candida tropicalis, Candida albicans-ATCC 36082) as well as Cryptococcus neoformans were used for the initial testing. […] All clinical strains used in this study were blood culture isolates from the Clinical Microbiology Laboratory of Harbor-UCLA Medical Center, Torrance, Calif. The organisms were maintained on Sabourahd Dextrose Agar slants at 4° C. For experimentation, singlet suspensions of each organism were prepared by growing the yeast overnight at 27° C. on a rotating drum in yeast-nitrogen base broth (YNB) with amino acids (Difco, Detroit, Mich.), pH 7.0 with 0.05M morpholinepropanesulfonic acid (MOPS). The suspension was then centrifuged and washed twice with 0.85% NaCl. This was followed by sonication of the washed cell suspension for 4s (Branson Sonifier, model 350, Danbury, Conn.). The singlet blastospores were counted in a hemocytometer and adjusted to the desired concentration in 0.85% NaCl.
(§2) Antifungal Activity: The antifungal activity of the compounds and Fluconazole against the Candida and Cryptococcus strains were determined using a modification of a broth microdilution technique. Test compounds were diluted in DMSO to a 1.0 mg/ml ratio then diluted to 64 μg/ml in YNB broth, pH 7.0 with MOPS (Fluconazole was used as the control). This was to provide a working solution of each compound. Using a 96-well plate, wells 1 and 3 through 12 were prepared with YNB broth, […] dilutions of the compound solution were made in wells 2 through 11 (concentration ranges were 64 to 0.125 μg/ml). Well one served as a sterility control and blank for the spectrophotometric assays. Well twelve served as a growth control. The microtiter plates were inoculated with 10 ul in each of well 2 through 11 (final inoculum size was 10^4 organisms/ml). Inoculated plates were incubated for 48 hrs., at 35° C. The MIC values were determined spectrophotometrically by measuring the absorbance at 420 nm (Automatic Microplate Reader, DuPont Instruments, Wilmington, Del.) after agitation of the plates for 2 min with a vortex-mixer (Vorte-Genie 2 Mixer, Scientific Industries, Inc., Bolemia, N.Y.). […] With the turbidity assay this was defined as the lowest drug concentration at which turbidity in the well was <50% of the control (IC50) Minimal Cytolytic Concentrations (MCC) were determined by subculturing all wells from the 96-well plate onto a Sabourahd Dextrose Agar (SDA) plate and incubated for 1 to 2 days at 35° C. and the viability was checked.

Assay [2] has the same test system. The assay can be described thus: Broth microdilution antifungal activity, Table II second MIC/MCC column pair. The conditions noted are these: second column pair of Table II; for MIC = Minimum inhibitory concentration (50% Inhibition): 48 hrs, 35° C., YNB broth pH 7.0; for MCC = Minimum cytolytic concentration: subculture on SDA plate. The method, then:
(§3) Organisms: Three strains of Candida (Candida parpsilosis, Candida tropicalis, Candida albicans-ATCC 36082) as well as Cryptococcus neoformans were used for the initial testing. Active compounds were then tested against fluconazole resistant Candida albicans, Candida krusei, Torulopsis glabrata, and Cryptococcus neoformans along with Sporothrix shenkii and Aspergillus flavus in the secondary round of testing. All clinical strains used in this study were blood culture isolates from the Clinical Microbiology Laboratory of Harbor-UCLA Medical Center, Torrance, Calif. The organisms were maintained on Sabourahd Dextrose Agar slants at 4° C. For experimentation, singlet suspensions of each organism were prepared by growing the yeast overnight at 27° C. on a rotating drum in yeast-nitrogen base broth (YNB) with amino acids (Difco, Detroit, Mich.), pH 7.0 with 0.05M morpholinepropanesulfonic acid (MOPS). The suspension was then centrifuged and washed twice with 0.85% NaCl. This was followed by sonication of the washed cell suspension for 4s (Branson Sonifier, model 350, Danbury, Conn.). The singlet blastospores were counted in a hemocytometer and adjusted to the desired concentration in 0.85% NaCl.
as §2
Background: Broth dilution looks for growth in wells or tubes with falling amounts of substance.

Assay [3] shares this test system. As to the kind of experiment: Broth microdilution antifungal activity, Table II fourth MIC/MCC column pair. The conditions noted are these: for MIC = Minimum inhibitory concentration (50% Inhibition) / MCC = Minimum cytolytic concentration: fourth column pair of Table II; for MIC = Minimum inhibitory concentration (50% Inhibition): YNB broth pH 7.0; for MCC = Minimum cytolytic concentration: subculture on SDA plate. The method, then: as §1, §2

Assay [4] has the same test system. As to the kind of experiment: Broth microdilution antifungal activity, Table II third MIC/MCC column pair. The conditions noted are these: for MIC = Minimum inhibitory concentration (50% Inhibition): 48 hrs, 35° C., YNB broth pH 7.0; for MCC = Minimum cytolytic concentration: subculture on SDA plate. The method, then:
as §3, §2

The structures appear in SMILES notation. In brackets after ≈: the same amount, converted by molar mass. Marks after values point to notes of the source that are not given here.

Consider `C[C@@H]1[C@H](O)[C@@H](C)/C=C/C=C/C=C/C=C/C=C/C=C/C=C/[C@H](O[C@@H]2O[C@H](C)[C@@H](O)[C@H](N)[C@@H]2O)C[C@@H]2O[C@](O)(C[C@@H](O)C[C@@H](O)[C@H](O)CC[C@@H](O)C[C@@H](O)CC(=O)O[C@H]1C)C[C@H](O)[C@H]2C(=O)O` [Amp-B, amphotericin B, reference compound], for which the “MIC = Minimum inhibitory concentration (50% Inhibition)” value in assay [1] (48 hrs, 35° C.) was 0.25 µg/mL (≈ 0.271 µM); in assay [2], 0.25 µg/mL (≈ 0.271 µM); in assay [3] (48 hrs, 35° C.), less than 0.03 µg/mL.
Consider `C=CCN(C)Cc1ccc(-c2csc(-c3ccc(F)cc3)n2)cc1` [Example 1, 2-(4′-fluorophenyl)-4-[4″-(N-methyl-N-allylaminomethyl)phenyl]thiazole], for which the “MIC = Minimum inhibitory concentration (50% Inhibition)” value in assay [1] (48 hrs, 35° C.) was 4^c μg/ml; in assay [2] it was 4 µg/mL (≈ 11.8 µM); in assay [4] it was 4 µg/mL (≈ 11.8 µM); in assay [3] (48 hrs, 35° C.), 4 µg/mL (≈ 11.8 µM). Moreover, the “MCC = Minimum cytolytic concentration” value in assay [1], in assay [2], in assay [4] and in assay [3] was 16 µg/mL throughout.
Regarding `CN(C)Cc1ccc(-c2csc(-c3cccc([N+](=O)[O-])c3)n2)cc1` [Example 1aa, 2-(3′-nitrophenyl)-4-[4″-(dimethylaminomethyl)phenyl]-thiazole], the “MIC = Minimum inhibitory concentration (50% Inhibition)” value in assay [1] (48 hrs, 35° C.) came out at 4 µg/mL (≈ 11.8 µM); in assay [2], 4 µg/mL (≈ 11.8 µM); in assay [4], 4 µg/mL (≈ 11.8 µM); in assay [3] (48 hrs, 35° C.), 4 µg/mL (≈ 11.8 µM). Also, the “MCC = Minimum cytolytic concentration” value in assay [1], in assay [2], in assay [4] and in assay [3] was 4 µg/mL throughout.
Consider `CN(CCO)Cc1ccc(-c2csc(-c3ccc(Cl)cc3)n2)cc1` [Example 1ee, 2-(4′-chlorophenyl)-4-[4″-(N-methyl-N-(2-hydroxyethyl)aminomethyl)-phenyl]thiazole], for which the “MIC = Minimum inhibitory concentration (50% Inhibition)” value in assay [1] (48 hrs, 35° C.) came to 4 µg/mL (≈ 11.1 µM); in assay [2], 2 µg/mL (≈ 5.57 µM); in assay [4], 4 µg/mL (≈ 11.1 µM); in assay [3] (48 hrs, 35° C.) it was 2 µg/mL (≈ 5.57 µM). In addition, the “MCC = Minimum cytolytic concentration” value in assay [1] is 16 µg/mL; in assay [2], 16 µg/mL; in assay [4], 8 µg/mL; in assay [3], 16 µg/mL.
Regarding `C=CCN(C)Cc1ccc(-c2csc(-c3ccc(Cl)cc3)n2)cc1` [Example 1g, 2-(4′-chlorophenyl)-4-[4″-(N-methyl-N-allylaminomethyl)phenyl]thiazole], the “MIC = Minimum inhibitory concentration (50% Inhibition)” value in assay [1] (48 hrs, 35° C.) turned out to be 2 µg/mL (≈ 5.64 µM); in assay [2] it was 4 µg/mL (≈ 11.3 µM); in assay [4], 2 µg/mL (≈ 5.64 µM); in assay [3] (48 hrs, 35° C.) it was 2 µg/mL (≈ 5.64 µM). For the same molecule, the “MCC = Minimum cytolytic concentration” value in assay [1], in assay [2], in assay [4] and in assay [3] was 8 µg/mL in each case.
Take `C=CCN(C)Cc1ccc(-c2csc(-c3ccc([N+](=O)[O-])cc3)n2)cc1` [Example 1h, 2-(4′-nitrophenyl)-4-[4″-(N-methyl-N-allylaminomethyl)phenyl]thiazole]: the “MIC = Minimum inhibitory concentration (50% Inhibition)” value was 0.5^c μg/ml in assay [1] (48 hrs, 35° C.); 0.25 µg/mL (≈ 0.684 µM) in assay [2]; 0.125 µg/mL (≈ 0.342 µM) in assay [4]; 0.5 µg/mL (≈ 1.37 µM) in assay [3] (48 hrs, 35° C.). Moreover, the “MCC = Minimum cytolytic concentration” value in assay [1] is 2 µg/mL; in assay [2], 1 µg/mL; in assay [4], 0.5 µg/mL; in assay [3], 2 µg/mL.
In the case of `CN(C)CCNCc1ccc(-c2csc(-c3ccc(Cl)cc3)n2)cc1` [Example 1jj, 2-(4′-chlorophenyl)-4-[4″-(N-(2-dimethylaminoethyl)aminomethyl)phenyl]thiazole], the “MIC = Minimum inhibitory concentration (50% Inhibition)” value in assay [1] (48 hrs, 35° C.) came to 8 µg/mL (≈ 21.5 µM); in assay [2], 4 µg/mL (≈ 10.8 µM); in assay [4] it was 4 µg/mL (≈ 10.8 µM); in assay [3] (48 hrs, 35° C.) it was 8 µg/mL (≈ 21.5 µM). Moreover, the “MCC = Minimum cytolytic concentration” value in assay [1] was 8 µg/mL; in assay [2] it was 4 µg/mL; in assay [4] it was 4 µg/mL; in assay [3] it was 8 µg/mL.
Consider `C=CCN(C)Cc1ccc(-c2csc(-c3cccc([N+](=O)[O-])c3)n2)cc1` [Example 1k, 2-(3′-nitrophenyl)-4-[4″-(N-methyl-N-allylaminomethyl)phenyl]thiazole], for which the “MIC = Minimum inhibitory concentration (50% Inhibition)” value in assay [1] (48 hrs, 35° C.) turned out to be 0.5 µg/mL (≈ 1.37 µM); in assay [2] it was 0.25 µg/mL (≈ 0.684 µM); in assay [4], 0.25 µg/mL (≈ 0.684 µM); in assay [3] (48 hrs, 35° C.) it was 0.25 µg/mL (≈ 0.684 µM). In addition, the “MCC = Minimum cytolytic concentration” value in assay [1] worked out at 1 µg/mL; in assay [2] it was 0.5 µg/mL; in assay [4] it was 0.25 µg/mL; in assay [3] it was 0.5 µg/mL.
As for `C=CCN(C)Cc1ccc(-c2csc(-c3ccc(OC)c([N+](=O)[O-])c3)n2)cc1` [Example 1kk, 2-(4′-methoxy-3′-nitrophenyl)-4-[4″-(N-methyl-N-allylamino-methyl)phenyl]thiazole], the “MIC = Minimum inhibitory concentration (50% Inhibition)” value in assay [1] (48 hrs, 35° C.) came out at 1 µg/mL (≈ 2.53 µM); in assay [2], 0.25 µg/mL (≈ 0.632 µM); in assay [4], 1 µg/mL (≈ 2.53 µM); in assay [3] (48 hrs, 35° C.), 0.5 µg/mL (≈ 1.26 µM). Besides, the “MCC = Minimum cytolytic concentration” value was determined as 2 µg/mL in assay [1], 1 µg/mL in assay [2], 2 µg/mL in assay [4] and 2 µg/mL in assay [3].
With `COc1ccc(-c2nc(-c3ccc(CN(C)CCO)cc3)cs2)cc1[N+](=O)[O-]` [Example 1ll, 2-(4′-methoxy-3′-nitrophenyl)-4-[4″-(N-methyl-N-(2-hydroxy-ethyl)amino-methyl)phenyl]thiazole], the “MIC = Minimum inhibitory concentration (50% Inhibition)” value amounted to 8 µg/mL (≈ 20 µM) in assay [1] (48 hrs, 35° C.); 2 µg/mL (≈ 5.01 µM) in assay [2]; 4 µg/mL (≈ 10 µM) in assay [4]; 2 µg/mL (≈ 5.01 µM) in assay [3] (48 hrs, 35° C.). For the same molecule, the “MCC = Minimum cytolytic concentration” value turned out to be 8 µg/mL in assay [1], 2 µg/mL in assay [2], 4 µg/mL in assay [4] and 8 µg/mL in assay [3].
On to `CN(C/C=C/c1ccccc1)Cc1cccc2ccccc12` [Naftifine, reference compound], for which the MIC in assay [1] (Candida, 48 h, pH 7, first column pair of Table II, 48 hrs, 35° C., YNB broth pH 7.0, read-out: MIC = Minimum inhibitory concentration (50% Inhibition)) came to 32 µg/mL (≈ 111 µM); in assay [3] (Candida, 48 h, pH 7, fourth column pair of Table II, 48 hrs, 35° C., YNB broth pH 7.0, read-out: MIC = Minimum inhibitory concentration (50% Inhibition)), 4 µg/mL (≈ 13.9 µM).
